Results as given in the supplement of paper PMC10307832.

Key:
Experiment in all cases: relative viability (nuclei count vs DMSO), 5 days (fraction); higher = more cells survive
[1] = compound: COc1cc2ncn(-c3cc(OCc4ccccc4C(F)(F)F)c(C(N)=O)s3)c2cc1OC
How it was run: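 Viability was read as treated-well nuclei divided by vehicle-well nuclei, using the median across plates. Lung cancer cell lines in 1536-well plates were kept overnight at 37 °C, pinned with five √10-spaced library-drug doses, and after 5 days were Hoechst-stained, imaged at 4× and counted in MetaXpress. Plates passed only with control CV below 25% and at least one doubling.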

[2] = compound: COc1cc2ncn(-c3cc(OCc4ccccc4C(F)(F)F)c(C(N)=O)s3)c2cc1OC + COc1cccc2cc(-c3nc([C@H]4CC[C@H](C(=O)O)CC4)n4ncnc(N)c34)[nH]c12 [OSI-027] (partner 0.5 µM)
How it was run: (§1)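 Each reported value is a median over duplicate plates. It expresses relative viability: treated-well nuclei count divided by vehicle-well nuclei count. Lung cancer cell lines in 1536-well plates were dosed by pin tool a day after seeding, alone with one drug or with a fixed anchor-drug dose plus five library-drug doses (not always all listed) in √10 steps, and nuclei were counted after 5 days.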

[3] = compound: COc1cc2ncn(-c3cc(OCc4ccccc4C(F)(F)F)c(C(N)=O)s3)c2cc1OC + N=C(N)NC(=N)NCCc1ccccc1 [Phenformin] (partner 250 µM)
How it was run: as §1

[4] = compound: COc1cc2ncn(-c3cc(OCc4ccccc4C(F)(F)F)c(C(N)=O)s3)c2cc1OC + CC(=O)Nc1cccc(-n2c(=O)n(C3CC3)c(=O)c3c(Nc4ccc(I)cc4F)n(C)c(=O)c(C)c32)c1 [Trametinib] (partner 0.02 µM)
How it was run: as §1

Row | Cell Line | relative viability ([1]; 0.05 µM) | relative viability ([1]; 0.1581 µM) | relative viability ([1]; 0.5 µM) | relative viability ([1]; 1.581 µM) | relative viability ([1]; 5 µM) | relative viability ([2]; first compound 0.05 µM) | relative viability ([2]; first compound 0.1581 µM) | relative viability ([2]; first compound 0.5 µM) | relative viability ([2]; first compound 1.581 µM) | relative viability ([2]; first compound 5 µM) | relative viability ([3]; first compound 0.05 µM) | relative viability ([3]; first compound 0.1581 µM) | relative viability ([3]; first compound 0.5 µM) | relative viability ([3]; first compound 1.581 µM) | relative viability ([3]; first compound 5 µM) | relative viability ([4]; first compound 0.05 µM) | relative viability ([4]; first compound 0.1581 µM) | relative viability ([4]; first compound 0.5 µM) | relative viability ([4]; first compound 1.581 µM) | relative viability ([4]; first compound 5 µM)
1 | NCI-H2342 | 1.09 | 1 | 0.855 | 0.623 | 0.466 | 0.614 | 0.579 | 0.56 | 0.416 | 0.375 | 0.631 | 0.652 | 0.457 | 0.379 | 0.299 | 0.794 | 0.757 | 0.696 | 0.607 | 0.598
2 | NCI-H2347 | 1.05 | 0.932 | 0.848 | 0.564 | 0.501 | 0.488 | 0.492 | 0.326 | 0.308 | 0.375 | 0.361 | 0.374 | 0.493 | 0.353 | 0.277 | 0.287 | 0.28 | 0.299 | 0.268 | 0.282
3 | NCI-H2405 | 1.13 | 0.769 | 0.665 | 0.428 | 0.351 | 0.647 | 0.613 | 0.384 | 0.357 | 0.268 | 0.437 | 0.274 | 0.29 | 0.322 | 0.246 | 0.672 | 0.412 | 0.47 | 0.367 | 0.311
4 | NCI-H3122 | 1 | 0.872 | 0.317 | 0.145 | 0.173 | 1.01 | 0.555 | 0.124 | 0.113 | 0.157 | 0.362 | 0.37 | 0.16 | 0.143 | 0.128 | 0.209 | 0.213 | 0.143 | 0.135 | 0.155
5 | PC-3 [JPC-3] | 1.06 | 0.985 | 0.636 | 0.303 | 0.296 | 0.79 | 0.767 | 0.423 | 0.169 | 0.198 | 0.494 | 0.501 | 0.381 | 0.184 | 0.187 | 0.697 | 0.698 | 0.536 | 0.407 | 0.279
6 | PC-14 | 0.988 | 0.923 | 0.661 | 0.141 | 0.0894 | 0.861 | 0.904 | 0.254 | 0.0302 | 0.027 | 0.501 | 0.561 | 0.465 | 0.119 | 0.0948 | 0.555 | 0.727 | 0.281 | 0.053 | 0.0472
7 | RERF-LC-KJ | 0.987 | 1.07 | 0.584 | 0.297 | 0.471 | 0.534 | 0.494 | 0.226 | 0.205 | 0.253 | 0.376 | 0.396 | 0.229 | 0.272 | 0.259 | 0.935 | 0.915 | 0.57 | 0.456 | 0.5
8 | SK-LU-1 | 1.05 | 0.871 | 0.603 | 0.261 | 0.233 | 0.33 | 0.332 | 0.168 | 0.196 | 0.188 | 0.563 | 0.519 | 0.216 | 0.163 | 0.15 | 0.469 | 0.297 | 0.324 | 0.295 | 0.223
9 | SK-MES-1 | 1.02 | 0.931 | 0.622 | 0.194 | 0.269 | 0.554 | 0.602 | 0.219 | 0.129 | 0.143 | 0.559 | 0.636 | 0.234 | 0.197 | 0.121 | 0.578 | 0.623 | 0.538 | 0.177 | 0.228
10 | SW 1573 | 1.06 | 0.963 | 0.547 | 0.173 | 0.325 | 0.757 | 0.606 | 0.281 | 0.129 | 0.105 | 0.232 | 0.413 | 0.143 | 0.103 | 0.0927 | 0.545 | 0.56 | 0.41 | 0.11 | 0.0977
11 | UMC-11 | 0.913 | 0.708 | 0.329 | 0.182 | 0.145 | 0.469 | 0.34 | 0.147 | 0.169 | 0.14 | 0.271 | 0.201 | 0.158 | 0.173 | 0.168 | 0.543 | 0.195 | 0.194 | 0.156 | 0.12
